Laboratory results taken from PMC7687180 (Chembiochem, 2020).
Where two headings read alike, the source gives them in different places.

Tests used:
SdeC [1] = biological target: T1, SdeC (Legionella pneumophila, UniProt Q5ZTK8); assay: biochemical
T1 construct: gene lpg2153

SdeC [2] = biological target: T1, SdeC; assay: biochemical; remark: listed apart in the source

Q: How did the IC50 (SdeC [1]) turn out when `NC(=O)c1ccc[n+]([C@@H]2O[C@H](COP(=O)([O-])OP(=O)(O)OC[C@H]3O[C@@H](n4cnc5c(N)ncnc54)[C@H](O)[C@@H]3O)[C@@H](O)[C@H]2O)c1` [NAD^+] was run?
A: 27.7 ± 1.9 µM

Q: Which IC50 (SdeC [2]) does the source give for `NC(=O)c1ccc[n+]([C@@H]2S[C@H](COP(=O)(O)OP(=O)([O-])OC[C@H]3O[C@@H](n4cnc5c(N)ncnc54)[C@H](O)[C@@H]3O)[C@@H](O)[C@H]2O)c1` [compound 2, S-NAD^+] here?
A: 27.9 µM

Q: With `NC(=O)c1cccc([C@@H]2O[C@H](COP(=O)(O)OP(=O)(O)OC[C@H]3O[C@@H](n4cnc5c(N)ncnc54)[C@H](O)[C@@H]3O)[C@@H](O)[C@H]2O)c1` [compound 3, BAD] as the compound, how does the IC50 (SdeC [2]) read?
A: 38.9 µM
